Experiments:
[1] = test system: Wnt pathway activity (SW480 colon carcinoma cells stably expressing the Sp5-Luc reporter); assay: Wnt pathway activity screening assay (Sp5-Luc reporter gene assay); conditions: Homo sapiens, SW480, Table 4; SW480 cells stably expressing Sp5-Luc reporter, 10-point dose-response from 10 μM, 36 to 48 hours
[2] = test system: primary human mesenchymal stem cells (hMSCs); assay: Chondrogenesis screening using primary human mesenchymal stem cells; type: cell-based; conditions: Homo sapiens, Mesenchymal stem cells, hMSC chondrogenesis; for Emax: maximum activity relative to TGF-β3 (10 ng/mL) positive control, read-out: Max. Activity as % TGF-β3 activity
Summary of the method: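 Primary hMSCs at passage 3–6 were treated across compound concentrations, with TGF-β3 as positive control. Chondrogenic nodule area per well was normalized to 3 DMSO wells on the same plate (fold over DMSO, 2–3 replicates). EC50, maximum activity and the dose reaching it were derived.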

CLK2 kinase = CLK2 kinase (Homo sapiens, UniProt P49760); assay: CLK2 kinase activity assay (Z-lyte FRET); type: biochemical; conditions: Z-lyte Ser/Thr 6 peptide, 60 μM ATP, 1 h at room temperature;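 also: FRET read-out as coumarin to fluorescein emission ratio, unphosphorylated peptide as 0% and phosphorylated peptide as 100% controls, duplicate reactions, non-linear regression fit of dose-response curves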
Sequence of CLK2 kinase (P49760 whole entry): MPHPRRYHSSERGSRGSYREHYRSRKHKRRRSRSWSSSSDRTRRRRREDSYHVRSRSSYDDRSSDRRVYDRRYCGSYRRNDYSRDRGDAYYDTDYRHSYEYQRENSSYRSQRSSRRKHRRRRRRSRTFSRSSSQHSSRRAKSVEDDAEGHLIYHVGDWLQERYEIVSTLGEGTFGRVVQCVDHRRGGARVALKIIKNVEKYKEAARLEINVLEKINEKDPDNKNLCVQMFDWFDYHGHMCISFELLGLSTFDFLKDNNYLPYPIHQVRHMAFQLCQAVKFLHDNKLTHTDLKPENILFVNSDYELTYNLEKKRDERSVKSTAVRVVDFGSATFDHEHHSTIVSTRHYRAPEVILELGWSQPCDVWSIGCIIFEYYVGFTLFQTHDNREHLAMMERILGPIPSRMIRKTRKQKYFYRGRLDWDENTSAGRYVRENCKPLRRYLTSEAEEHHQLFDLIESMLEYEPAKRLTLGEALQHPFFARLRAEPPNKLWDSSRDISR

[3] = test system: MMP-3 levels in supernatant of chondrocytes stimulated with IL1-β; assay: Chondrocyte protection assay compound screening (MMP-3 LANCE Ultra); type: cell-based, human; conditions: IL1-β 10 ng/mL overnight, 11-point curves from 3 μM to 0.05 nM; for Emax: read-out: Maximum % Inhibition
Description: Human Chondrocyte Cell Culture: Primary human chondrocytes were purchased from Lonza (Walkersville, Md.) and expanded in Chondrocyte Growth Media (CGM, Lonza). Cells between passage 2 and 5 were used for the experiments.
Chondrocytes were plated at 8,000 cells/well in 40 μL/well Chondrocyte Differentiation Medium (Lonza; 500 mL Basal Medium, 25 mL FBS, 0.5 mL GA-1000, 1 mL R3-IGF, 2.5 mL bFGF, 0.5 mL Transferrin, and 1 mL Insulin). After 2 hours of incubation at 37° C. and 5% CO2, IL1-β (Peprotech, Rocky Hill, N.J.) was added to a final concentration of 10 ng/mL. 11 wells in 1 row were left unstimulated for normalization and calculating EC50 values. Cells were incubated at 37° C. and 5% CO2 overnight. Assay plates are spun, 25 μl of supernatant media was collected using (S2 pipettor, Apricot Designs). Cells were lysed using 10 μL of (Cell Titer-Glo, Promega). Luminescent signal detected using an En Vision Multilabel reader (Perkin Elmer). MMP-3 levels were measured in supernatant. Supernatant diluted 1:7 in DMEM. MMP-3 levels in the supernatant were measured using MMP-3 LANCE Ultra detection kit (Perkin Elmer). Briefly, 5 μL of diluted supernatant was transferred to low-volume 384 well plates using (S2 pipettor, Apricot Designs). A standard curve was prepared using MMP-3 analyte (range […]). 1.7 μL of 8× mix of Eu-labelled anti-MMP-3 antibody and ULight labelled anti-MMP-3 antibody was added to the plates using Mantis Liquid handler (Formulatrix). Plates were incubated overnight at room temperature. LANCE signal was detected using an EnVision Multilabel reader (Perkin Elmer), equipped with TR-FRET using excitation wavelength of 320 nm and two emission wavelengths of 615 nm and 665 nm. Data was analyzed according to the kit protocol, using the ratio of […] and the standard curve values were used to calculate the amount of MMP3 in the […] (in pg/ml). The normalized averages (fold change over IL1-β stimulated) for each compound concentration were calculated. EC50 and maximum % inhibition values were calculated using the dose-response nonlinear regression curve-fit in Dotmatics.

CLK3 kinase = CLK3 kinase (Homo sapiens, UniProt P49761); assay: CLK3 kinase activity assay (Z-lyte FRET); type: biochemical; conditions: Z-lyte Ser/Thr 18 peptide, 156 μM ATP, 1 h at room temperature;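 also: kinase activity read as coumarin/fluorescein emission ratio by FRET, unphosphorylated peptide as 0% and phosphorylated peptide as 100% control, values from non-linear regression of dose-response curves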
Sequence of CLK3 kinase (P49761 whole entry): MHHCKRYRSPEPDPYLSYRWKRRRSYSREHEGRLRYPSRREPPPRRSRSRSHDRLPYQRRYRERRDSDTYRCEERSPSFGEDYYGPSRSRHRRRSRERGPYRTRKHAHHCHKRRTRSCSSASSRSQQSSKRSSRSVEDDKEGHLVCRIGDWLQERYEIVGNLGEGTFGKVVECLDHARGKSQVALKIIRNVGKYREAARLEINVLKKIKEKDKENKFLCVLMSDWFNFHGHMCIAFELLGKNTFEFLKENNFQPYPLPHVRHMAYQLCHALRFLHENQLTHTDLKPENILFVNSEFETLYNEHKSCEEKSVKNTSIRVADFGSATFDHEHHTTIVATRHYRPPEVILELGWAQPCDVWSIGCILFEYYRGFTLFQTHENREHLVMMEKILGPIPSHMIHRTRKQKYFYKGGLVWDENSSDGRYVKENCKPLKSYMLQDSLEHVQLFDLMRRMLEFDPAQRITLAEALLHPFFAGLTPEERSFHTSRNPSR

SMILES	EC50 [1] [nM]	EC50 ([2]; concentration required to induce 50% levels of chondrogenesis with TGF-β3 as positive control, read-out: Conc (nM) of 50% TGF-β3 activity) [nM]	EC50 (CLK2 kinase) [nM]	EC50 (CLK3 kinase) [nM]	Emax [2] [%]	EC50 ([3]; Homo sapiens, Chondrocyte) [nM]	Emax ([3]; Homo sapiens, Chondrocyte) [%]	EC50 [3] [nM]	Maximum % Inhibition [3] [%]
COc1cncc(C(=O)Nc2c[nH]nc2C(=O)Nc2ccc(N3CCC(F)(F)C3)nc2)c1 [compound 6]	5.7	300	15	–	124	2.2	42.1	–	–
CN(C)Cc1ccc(C(=O)Nc2cc3cc(-c4cnn(C)c4)ccc3cn2)cc1 [compound 540]	–	–	3	41	–	47.4	80.7	–	–
CN1CCN(c2ccc(C(=O)Nc3cc4cc(-c5cnn(C)c5)ccc4cn3)cn2)CC1 [compound 542]	–	–	–	36	–	–	–	9.5	47.6
CN(C)CCNc1cc(C(=O)Nc2cc3cc(-c4cnn(C)c4)ccc3cn2)ccn1 [compound 543]	–	–	3	60	–	306	81.8	–	–
CN1CCN(c2cc(C(=O)Nc3cc4c(Cl)c(-c5cnn(C)c5)ccc4cn3)ccn2)CC1 [compound 547]	–	–	3	43	–	898	52.1	–	–
CN1CCN(c2ccc(C(=O)Nc3cc4cc(-c5cnn(C)c5)ccc4cn3)cn2)CC1 [compound 551]	–	–	–	78	–	–	–	1060	100.0
CN1CCN(c2ccc(C(=O)N3CCN(c4cc(C(=O)Nc5cc6cc(-c7cnn(C)c7)ccc6cn5)ccn4)CC3)cn2)CC1 [compound 553]	–	–	2	280	–	304	52.3	–	–
Cn1cc(-c2ccc3cnc(NC(=O)c4ccnc(OC5CNC5)c4)cc3c2)cn1 [compound 556]	–	–	2	38	–	154	100	–	–
Cn1cc(-c2ccc3cnc(NC(=O)c4ccc5c(c4)CNCC5)cc3c2)cn1 [compound 557]	–	–	2	39	–	1630	50.5	–	–
Cn1cc(-c2ccc3cnc(NC(=O)c4ccc5c(c4)ncn5C)cc3c2)cn1 [compound 558]	–	–	3	49	–	≥ 3000	46.9	–	–
Cn1cc(-c2ccc3cnc(NC(=O)C4=CNC5C=CC=CC5=C4)cc3c2)cn1 (centres unmarked) [compound 559]	–	–	4	66	–	19.1	41.2	–	–
Cn1cc(-c2ccc3cnc(NC(=O)c4ccc5cnccc5c4)cc3c2)cn1 [compound 560]	–	–	4	85	–	≥ 3000	63.6	–	–
CN1CCN(c2cc(C(=O)Nc3cc4cc(-c5cnn(C6CC6)c5)ccc4cn3)ccn2)CC1 [compound 565]	–	–	6	71	–	12.2	76.6	–	–
Cn1ncc(-c2ccc3cnc(NC(=O)c4ccc(OC(F)F)cc4)cc3c2)c1CO [compound 567]	–	–	8	261	–	1370	69.8	–	–
CN1CCC2(CC1)CN(c1cc(C(=O)Nc3cc4cc(-c5cnn(C)c5CO)ccc4cn3)ccn1)C2 [compound 568]	–	–	3	44	–	≥ 3000	42.7	–	–
CN1CCN(c2ccc(C(=O)Nc3cc4cc(-c5cnn6c5CN(CCF)CC6)ccc4cn3)cn2)CC1 [compound 576]	–	–	2	81	–	≥ 3000	62.6	–	–
CN1CCc2cc(C(=O)Nc3cc4cc(-c5cn(C)nn5)ccc4cn3)ccc2C1 [compound 578]	–	–	–	48	–	≥ 3000	37.6	–	–
Cc1ncc(-c2ccc3cnc(NC(=O)c4ccc(OC(C)C)cc4)cc3c2)n1C [compound 588]	–	–	2	70	–	10.5	74.7	–	–
NC1CN(c2cc(C(=O)Nc3cc4cc(-c5cnco5)ccc4cn3)ccn2)C1 [compound 590]	–	–	4	40	–	≥ 3000	33.2	–	–
O=C(Nc1cc2cc(-c3cncs3)ccc2cn1)c1ccc2c(c1)CNCC2 [compound 592]	–	–	2	43	–	≥ 3000	29.7	–	–
Cc1nnc(-c2ccc3cnc(NC(=O)c4ccnc(N(C)C5CCN(C)CC5)c4)cc3c2)s1 [compound 595]	–	–	–	19	25.7	2.7	86.2	–	–

The remaining compounds from weak to strong by EC50 (CLK3 kinase), led by results:

EC50 [1] [nM]	EC50 ([2]; concentration required to induce 50% levels of chondrogenesis with TGF-β3 as positive control, read-out: Conc (nM) of 50% TGF-β3 activity) [nM]	EC50 (CLK2 kinase) [nM]	EC50 (CLK3 kinase) [nM]	SMILES	Emax [2] [%]	EC50 ([3]; Homo sapiens, Chondrocyte) [nM]	Emax ([3]; Homo sapiens, Chondrocyte) [%]	EC50 [3] [nM]	Maximum % Inhibition [3] [%]
–	–	–	34	CN1CCN(c2cc(C(=O)Nc3cc4cc(-c5cnn(C)c5N)ccc4cn3)ccn2)CC1 [compound 566]	–	11.5	43.8	–	–
–	–	2	31	CN(C)CCOc1cc(C(=O)Nc2cc3cc(-c4cnn(C)c4)ccc3cn2)ccn1 [compound 544]	–	1010	63.5	–	–
–	–	–	28	CN1CCCN(c2cc(C(=O)Nc3cc4cc(-c5cnn(C)c5)ccc4cn3)ccn2)CC1 [compound 550]	–	≥ 3000	66.9	–	–
–	–	2	27	CN1Cc2ccc(C(=O)Nc3cc4cc(-c5cncn5C)ccc4cn3)cc2C1 [compound 583]	–	≥ 3000	67.5	–	–
–	–	2	26	Cc1cc(C(=O)Nc2cc3cc(-c4cnn(C)c4)ccc3cn2)cc(N2CCN(C)CC2)n1 [compound 548]	–	≥ 3000	62.4	–	–
–	–	3	26	Cn1cc(-c2ccc3cnc(NC(=O)c4ccnc(N5CC6CC5CN6)c4)cc3c2)cn1 (centres unmarked) [compound 549]	–	≥ 3000	69	–	–
–	–	3	22	CN1CCN(c2cc(C(=O)Nc3cc4cc(-c5cnc(N)s5)ccc4cn3)ccn2)CC1 [compound 593]	–	0.4	62.9	–	–
–	–	2	21	CN1CCN(c2cc(C(=O)Nc3cc4cc(-c5cnn(C)c5)c(F)cc4cn3)ccn2)CC1 [compound 546]	–	0.4	97.3	–	–
–	–	–	20	CN1CCN(c2cc(C(=O)Nc3cc4cc(-c5cncs5)ccc4cn3)ccn2)CC1 [compound 591]	22.3	423	100	–	–
–	–	2	18	Cn1cncc1-c1ccc2cnc(NC(=O)c3ccnc(N4CCN(C5CC5)CC4)c3)cc2c1 [compound 582]	–	≥ 3000	52.2	–	–
–	–	1	16	CN1CCC2(CC1)CN(c1cc(C(=O)Nc3cc4cc(-c5cnn(C)c5)ccc4cn3)ccn1)C2 [compound 554]	–	≥ 3000	53.7	–	–
–	–	2	15	Cn1ncc(-c2ccc3cnc(NC(=O)c4cccc(CN5CCCC5)c4)cc3c2)c1CN1CCCCC1 [compound 572]	27.6	1190	96.5	–	–
–	–	1	14	CN1CCC(Oc2ccc(C(=O)Nc3cc4cc(-c5cnn(C)c5)ccc4cn3)cc2)CC1 [compound 541]	25.4	≥ 3000	95.6	–	–
–	–	2	14	Cc1nnc(-c2ccc3cnc(NC(=O)c4ccnc(C5CCN(C)CC5)c4)cc3c2)s1 [compound 594]	–	143	35.3	–	–
–	–	–	9	CN(C)C1CCN(c2cc(C(=O)Nc3cc4cc(-c5cnn(C)c5)ccc4cn3)ccn2)CC1 [compound 552]	–	697	83.2	–	–
–	–	2	8	Cn1ncc(-c2ccc3cnc(NC(=O)c4ccnc(N5CCOCC5)c4)cc3c2)c1CN1CCOCC1 [compound 573]	–	≥ 3000	70	–	–

From patent US20230000842A1, “METHODS OF TREATING CARTILAGE DISORDERS THROUGH INHIBITION OF CLK AND DYRK” (SAMUMED, LLC, priority 2019, published 2023)
